Source: article PMC4406325 (MedChemComm, 2014)

Experiments:
[1] = system: KB (nasopharyngeal carcinoma); test: SRB cytotoxic activity assay, KB; assay type: cell-based, human; details: 3 days in culture, average of three independent measurements
CDK9/cyclin T1 = CDK9/cyclin T1 (Homo sapiens, UniProt P50750); test: CDK9/Cyclin T1 kinase assay; assay type: biochemical; details: among all compounds tested at molecular level
HIV-1 NL4-3 = test: Anti-HIV-1 assay; assay type: cell-based; details: HIV-1 NL4-3, MT4 cells

CDK9/cyclin T1, sequence (P50750 whole entry): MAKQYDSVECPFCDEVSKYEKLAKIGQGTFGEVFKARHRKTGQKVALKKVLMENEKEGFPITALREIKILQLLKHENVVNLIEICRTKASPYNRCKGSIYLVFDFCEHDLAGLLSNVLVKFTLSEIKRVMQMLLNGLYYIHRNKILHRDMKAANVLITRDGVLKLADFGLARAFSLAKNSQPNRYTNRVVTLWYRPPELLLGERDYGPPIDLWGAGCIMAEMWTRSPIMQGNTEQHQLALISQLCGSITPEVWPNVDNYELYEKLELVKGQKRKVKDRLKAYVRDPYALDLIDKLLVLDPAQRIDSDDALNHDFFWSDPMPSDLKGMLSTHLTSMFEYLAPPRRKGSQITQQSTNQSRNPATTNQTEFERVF
CDK9/cyclin T1, sequence (O60563 whole entry partner): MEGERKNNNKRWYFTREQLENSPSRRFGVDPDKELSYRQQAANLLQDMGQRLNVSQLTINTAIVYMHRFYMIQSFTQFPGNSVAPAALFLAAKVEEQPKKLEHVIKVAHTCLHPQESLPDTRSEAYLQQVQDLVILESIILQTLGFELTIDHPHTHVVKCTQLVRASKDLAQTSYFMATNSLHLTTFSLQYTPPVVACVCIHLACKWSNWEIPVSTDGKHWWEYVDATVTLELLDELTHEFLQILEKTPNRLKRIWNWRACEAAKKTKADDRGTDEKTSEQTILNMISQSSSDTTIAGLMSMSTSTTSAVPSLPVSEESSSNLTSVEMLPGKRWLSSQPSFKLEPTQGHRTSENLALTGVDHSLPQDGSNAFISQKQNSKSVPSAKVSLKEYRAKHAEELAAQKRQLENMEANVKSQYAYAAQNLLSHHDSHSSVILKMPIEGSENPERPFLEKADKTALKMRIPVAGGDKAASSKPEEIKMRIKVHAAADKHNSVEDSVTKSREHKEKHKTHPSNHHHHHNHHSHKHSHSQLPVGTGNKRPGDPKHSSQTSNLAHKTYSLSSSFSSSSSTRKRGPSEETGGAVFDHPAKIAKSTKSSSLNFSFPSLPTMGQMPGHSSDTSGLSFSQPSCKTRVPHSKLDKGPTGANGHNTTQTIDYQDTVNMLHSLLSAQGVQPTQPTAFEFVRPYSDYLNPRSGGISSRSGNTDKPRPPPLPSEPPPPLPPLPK

Structure (SMILES) | GI50 KB [1] [µM] | selectivity to CDK9 over CDK2 (in words) (CDK9/cyclin T1) | inhibition in anti-HIV-1 assay (in words) (HIV-1 NL4-3)
Fc1cnc(Nc2cccc(N3CCOCC3)c2)nc1Nc1cc(Cl)cc(Cl)c1 [Compound 6a] | 14.80 ± 1.02 | – | –
Fc1cnc(Nc2cccc(N3CCOCC3)c2)nc1Nc1ccc(Cl)c(Cl)c1 [Compound 6b] | > 10 | – | –
Fc1ccc(Nc2nc(Nc3cccc(N4CCOCC4)c3)ncc2F)cc1 [Compound 6c] | > 10 | – | –
Fc1cnc(Nc2cccc(N3CCOCC3)c2)nc1Nc1c(F)cccc1F [Compound 6d] | > 10 | moderate selectivity to CDK9 over CDK2 | Appreciable inhibition
COc1ccc(N2CCOCC2)cc1Nc1ncc(F)c(Nc2ccc(F)cc2)n1 [Compound 6e] | > 10 | – | –
COc1ccc(N2CCN(C)CC2)cc1Nc1ncc(F)c(Nc2ccc(F)cc2)n1 [Compound 6f] | 0.96 ± 0.21 | – | –
O=C(Nc1cccc(Nc2ncc(F)c(Nc3ccc(F)cc3)n2)c1)c1ccccc1 [Compound 9a] | > 10 | – | –
O=C(Nc1cccc(Nc2ncc(F)c(Nc3ccc(F)cc3)n2)c1)c1cccc([N+](=O)[O-])c1 [Compound 9b] | 15.10 ± 1.16 | – | –
CN(C)c1ccc(C(=O)Nc2cccc(Nc3ncc(F)c(Nc4ccc(F)cc4)n3)c2)cc1 [Compound 9c] | > 10 | – | –
O=C(Nc1cccc(Nc2ncc(F)c(Nc3ccc(F)cc3)n2)c1)c1ccncc1 [Compound 9d] | 5.28 ± 3.49 | moderate selectivity to CDK9 over CDK2 | –
O=C(Nc1cccc(Nc2ncc(F)c(Nc3ccc(F)cc3)n2)c1)c1cnccn1 [Compound 9e] | 23.55 ± 3.92 | – | –
CN1CCC(C(=O)Nc2cccc(Nc3ncc(F)c(Nc4ccc(F)cc4)n3)c2)CC1 [Compound 9f] | 1.70 ± 0.80 | – | –
CN(C)CC(=O)Nc1cccc(Nc2ncc(F)c(Nc3ccc(F)cc3)n2)c1 [Compound 9g] | 1.26 ± 0.05 | – | –
COCC(=O)Nc1cccc(Nc2ncc(F)c(Nc3ccc(F)cc3)n2)c1 [Compound 9h] | 6.25 ± 1.38 | – | –
O=C(c1cccc(Nc2ncc(F)c(Nc3ccc(F)cc3)n2)c1)N1CCOCC1 [Compound 11a] | 14.58 ± 2.93 | – | –
CN1CCN(C(=O)c2cccc(Nc3ncc(F)c(Nc4ccc(F)cc4)n3)c2)CC1 [Compound 11b] | 12.58 ± 3.05 | – | –

Structure (SMILES) | GI50 KB [1] [µM] | selectivity to CDK9 over CDK2 (in words) (CDK9/cyclin T1) | inhibition in anti-HIV-1 assay (in words) (HIV-1 NL4-3)
O=C(c1cccc(Nc2ncc(F)c(Nc3ccc(F)cc3)n2)c1)N1CCCCC1 [Compound 11c] | 14.78 ± 2.53 | – | –
CS(=O)(=O)N1CCN(C(=O)c2cccc(Nc3ncc(F)c(Nc4ccc(F)cc4)n3)c2)CC1 [Compound 11d] | 20.29 ± 4.09 | – | –
CC(=O)N1CCCN(C(=O)c2cccc(Nc3ncc(F)c(Nc4ccc(F)cc4)n3)c2)CC1 [Compound 11e] | 14.88 ± 2.20 | – | Appreciable inhibition
CN(C)CCNC(=O)c1cccc(Nc2ncc(F)c(Nc3ccc(F)cc3)n2)c1 [Compound 11f] | 4.16 ± 0.69 | – | Appreciable inhibition
O=C(NCCO)c1cccc(Nc2ncc(F)c(Nc3ccc(F)cc3)n2)c1 [Compound 11g] | 12.39 ± 2.48 | – | –
O=C(Nc1ccc(C(F)(F)F)cc1)c1cccc(Nc2ncc(F)c(Nc3ccc(F)cc3)n2)c1 [Compound 11h] | > 10 | – | –
O=C(Nc1ccc(N2CCOCC2)cc1)c1cccc(Nc2ncc(F)c(Nc3ccc(F)cc3)n2)c1 [Compound 11i] | > 10 | – | –
COc1ccc(NC(=O)c2cccc(Nc3ncc(F)c(Nc4ccc(F)cc4)n3)c2)cc1 [Compound 11j] | > 10 | – | –
COc1cc(NC(=O)c2cccc(Nc3ncc(F)c(Nc4ccc(F)cc4)n3)c2)cc(OC)c1 [Compound 11k] | 15.47 ± 1.58 | – | –
O=C(Nc1ccc2c(c1)OCO2)c1cccc(Nc2ncc(F)c(Nc3ccc(F)cc3)n2)c1 [Compound 11l] | 14.08 ± 0.79 | – | –
O=C(Nc1cc(Cl)cc(Cl)c1)c1cccc(Nc2ncc(F)c(Nc3ccc(F)cc3)n2)c1 [Compound 11m] | 20.08 ± 1.06 | – | –
O=C(Nc1ccccn1)c1cccc(Nc2ncc(F)c(Nc3ccc(F)cc3)n2)c1 [Compound 11n] | 20.03 ± 10.96 | – | –
O=C(Nc1nccs1)c1cccc(Nc2ncc(F)c(Nc3ccc(F)cc3)n2)c1 [Compound 11o] | > 10 | – | –
Cn1ccnc1NC(=O)c1cccc(Nc2ncc(F)c(Nc3ccc(F)cc3)n2)c1 [Compound 11p] | 14.57 ± 1.70 | – | –
CN1CC[C@H](c2c(O)cc(O)c3c(=O)cc(-c4ccccc4Cl)oc23)[C@H](O)C1 [FVP, flavopiridol, reference compound] | 0.16 ± 0.007 | – | –
